Test results taken from ChEMBL document CHEMBL1201862, “PubChem BioAssay data set” (2004).
Active and inactive are the calls of the source.

Tests used:
[1] = system: H9c2; assay: cells; assay type: functional, cell-based; details: Rattus norvegicus, H9c2, Myocardium;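 note: confirmatory concentration-response retest of ultra-high-throughput screening hits for modulation of myocardial damage; cell death induced by hydrogen peroxide oxidative stress; compound pretreatment for 60 min then peroxide exposure for 2 h; potency is for protecting the cells against peroxide damage rather than for killing them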
[2] = Luminescence Cell-Based Dose Confirmation HTS to Identify Inhibitors of Platelet Dense Granule Release. [Related pubchem assays: 1663 (Primary HTS), 1678 (Summary of Project)]; assay type: functional
[3] = target: Luciferin 4-monooxygenase (Photinus pyralis, UniProt P08659); assay: inhibition of purified Photinus pyralis luciferase – biochemical, luminescence, dose response (AID 1891)
Sequence of Luciferin 4-monooxygenase (P08659 whole entry): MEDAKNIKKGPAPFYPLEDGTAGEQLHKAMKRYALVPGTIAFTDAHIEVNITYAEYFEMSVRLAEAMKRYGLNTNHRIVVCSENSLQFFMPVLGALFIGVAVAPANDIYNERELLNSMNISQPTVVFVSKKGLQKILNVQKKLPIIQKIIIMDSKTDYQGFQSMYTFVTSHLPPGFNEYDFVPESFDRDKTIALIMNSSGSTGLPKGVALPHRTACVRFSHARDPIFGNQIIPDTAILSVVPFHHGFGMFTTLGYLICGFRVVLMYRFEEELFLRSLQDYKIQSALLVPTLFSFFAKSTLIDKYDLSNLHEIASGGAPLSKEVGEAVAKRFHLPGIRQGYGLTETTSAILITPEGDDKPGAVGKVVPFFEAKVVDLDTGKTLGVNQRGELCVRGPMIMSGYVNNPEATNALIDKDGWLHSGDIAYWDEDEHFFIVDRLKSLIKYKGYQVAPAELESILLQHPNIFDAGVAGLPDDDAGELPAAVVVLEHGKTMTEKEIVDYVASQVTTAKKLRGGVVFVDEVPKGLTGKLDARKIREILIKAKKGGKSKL

[4] = target: T1, Ubiquitin-conjugating enzyme E2 N (Homo sapiens, UniProt P61088); assay type: functional;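 note: Dose-response confirmation in a TR-FRET assay detecting UBC13-driven polyubiquitin chain formation, inhibition measured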
T1 sequence (P61088 whole entry): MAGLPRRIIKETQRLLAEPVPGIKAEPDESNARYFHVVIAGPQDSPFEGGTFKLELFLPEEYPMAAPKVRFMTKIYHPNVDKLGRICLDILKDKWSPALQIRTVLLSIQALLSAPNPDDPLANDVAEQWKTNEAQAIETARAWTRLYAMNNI

[5] = target: Cytochrome P450 2C19 (Homo sapiens, UniProt P33261); assay: Cytochrome panel assay with activity outcomes. Panel member name: p450-cyp2c19 Compounds with AC50 equal or less than 10 uM are considered active; assay type: functional; details: read-out: AC50
Sequence of Cytochrome P450 2C19 (P33261 whole entry): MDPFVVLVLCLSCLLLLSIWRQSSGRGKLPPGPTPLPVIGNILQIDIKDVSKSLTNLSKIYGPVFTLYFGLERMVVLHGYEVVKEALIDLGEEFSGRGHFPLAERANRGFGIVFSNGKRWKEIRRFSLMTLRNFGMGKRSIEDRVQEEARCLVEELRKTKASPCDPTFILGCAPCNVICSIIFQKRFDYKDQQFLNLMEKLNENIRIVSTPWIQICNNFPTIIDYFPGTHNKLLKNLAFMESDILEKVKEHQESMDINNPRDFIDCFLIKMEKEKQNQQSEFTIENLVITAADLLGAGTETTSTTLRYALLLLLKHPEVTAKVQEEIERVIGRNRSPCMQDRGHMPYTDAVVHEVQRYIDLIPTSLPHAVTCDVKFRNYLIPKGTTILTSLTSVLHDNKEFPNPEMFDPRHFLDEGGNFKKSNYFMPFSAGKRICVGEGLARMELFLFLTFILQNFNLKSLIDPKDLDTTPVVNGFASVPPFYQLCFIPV

[6] = target: Cytochrome P450 2D6 (Homo sapiens, UniProt P10635);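 note: CYP2D6 member of a cytochrome P450 panel assay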
Sequence of Cytochrome P450 2D6 (P10635 whole entry): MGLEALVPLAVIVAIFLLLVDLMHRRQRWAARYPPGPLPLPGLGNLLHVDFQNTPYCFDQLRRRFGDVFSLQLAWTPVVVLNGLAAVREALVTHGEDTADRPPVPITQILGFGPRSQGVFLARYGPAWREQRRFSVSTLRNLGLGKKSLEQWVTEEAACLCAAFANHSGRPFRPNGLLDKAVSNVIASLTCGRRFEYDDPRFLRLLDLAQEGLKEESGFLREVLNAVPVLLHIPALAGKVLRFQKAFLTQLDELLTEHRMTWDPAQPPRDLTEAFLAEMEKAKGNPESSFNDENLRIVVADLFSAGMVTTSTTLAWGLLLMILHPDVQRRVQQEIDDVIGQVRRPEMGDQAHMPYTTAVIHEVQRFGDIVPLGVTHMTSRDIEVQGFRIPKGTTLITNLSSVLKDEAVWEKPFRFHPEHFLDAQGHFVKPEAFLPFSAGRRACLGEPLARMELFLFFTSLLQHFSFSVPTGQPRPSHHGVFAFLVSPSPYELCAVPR

[7] = target: Cytochrome P450 2C9 (Homo sapiens, UniProt P11712)
Sequence of Cytochrome P450 2C9 (P11712 whole entry): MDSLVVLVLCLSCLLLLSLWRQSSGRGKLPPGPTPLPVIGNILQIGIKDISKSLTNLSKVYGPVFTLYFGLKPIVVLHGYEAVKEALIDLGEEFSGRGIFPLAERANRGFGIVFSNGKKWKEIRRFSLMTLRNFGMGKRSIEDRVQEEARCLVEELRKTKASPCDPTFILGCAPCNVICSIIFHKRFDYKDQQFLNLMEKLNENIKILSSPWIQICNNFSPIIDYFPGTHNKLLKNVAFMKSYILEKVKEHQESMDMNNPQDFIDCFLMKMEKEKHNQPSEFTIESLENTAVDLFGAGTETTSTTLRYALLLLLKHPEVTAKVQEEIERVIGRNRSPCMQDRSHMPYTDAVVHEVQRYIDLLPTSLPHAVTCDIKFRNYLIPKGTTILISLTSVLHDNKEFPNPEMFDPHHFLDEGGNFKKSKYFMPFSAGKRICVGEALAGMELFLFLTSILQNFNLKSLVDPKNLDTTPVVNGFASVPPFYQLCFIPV

[8] = target: Nonstructural protein 1 (Influenza A virus, UniProt Q194T2); assay type: functional, Influenza A virus (A/California/07/2009(H1N1))
Sequence of Nonstructural protein 1 (Q194T2 whole entry): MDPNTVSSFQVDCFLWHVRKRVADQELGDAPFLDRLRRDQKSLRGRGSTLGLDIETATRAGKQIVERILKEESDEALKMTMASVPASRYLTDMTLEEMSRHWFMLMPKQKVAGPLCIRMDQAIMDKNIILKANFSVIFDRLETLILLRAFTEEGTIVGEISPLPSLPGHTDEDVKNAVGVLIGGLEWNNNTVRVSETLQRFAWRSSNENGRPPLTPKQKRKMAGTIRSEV

[9] = target: Genome polyprotein (dengue virus type 2, UniProt P29990); assay: flavivirus cap methylation enzyme inhibition – biochemical, confirmation dose response, primary screen (AID 588689); assay type: functional
Sequence of Genome polyprotein (P29990 2492-3391 limits assumed): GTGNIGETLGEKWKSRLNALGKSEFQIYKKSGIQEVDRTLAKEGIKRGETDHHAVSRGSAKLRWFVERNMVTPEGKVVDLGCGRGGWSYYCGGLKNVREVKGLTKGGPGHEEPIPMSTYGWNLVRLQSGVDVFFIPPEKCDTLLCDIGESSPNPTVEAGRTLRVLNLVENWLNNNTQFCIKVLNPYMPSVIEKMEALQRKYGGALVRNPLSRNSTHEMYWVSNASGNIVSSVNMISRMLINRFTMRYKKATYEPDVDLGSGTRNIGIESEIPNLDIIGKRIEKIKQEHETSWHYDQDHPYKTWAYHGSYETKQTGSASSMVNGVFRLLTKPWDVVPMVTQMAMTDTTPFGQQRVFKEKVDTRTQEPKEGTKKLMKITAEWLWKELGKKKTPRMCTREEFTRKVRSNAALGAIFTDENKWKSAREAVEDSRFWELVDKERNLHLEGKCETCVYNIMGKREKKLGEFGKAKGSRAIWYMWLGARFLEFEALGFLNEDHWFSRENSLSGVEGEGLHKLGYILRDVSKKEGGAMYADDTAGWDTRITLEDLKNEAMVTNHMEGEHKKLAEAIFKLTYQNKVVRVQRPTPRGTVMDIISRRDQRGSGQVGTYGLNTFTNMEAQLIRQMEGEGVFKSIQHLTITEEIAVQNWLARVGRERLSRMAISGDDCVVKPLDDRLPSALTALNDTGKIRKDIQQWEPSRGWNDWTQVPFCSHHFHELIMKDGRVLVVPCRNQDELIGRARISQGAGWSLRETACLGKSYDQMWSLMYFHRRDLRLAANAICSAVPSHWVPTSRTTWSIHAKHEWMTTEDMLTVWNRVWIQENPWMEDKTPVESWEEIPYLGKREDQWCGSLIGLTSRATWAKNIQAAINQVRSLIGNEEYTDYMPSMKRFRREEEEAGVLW

[10] = target: T2, Calpain-2 catalytic subunit (Sus scrofa, UniProt P43367); assay: m-calpain protease blockers, concentration series – biochemical, fluorogenic peptide substrate, dose response (AID 1420); assay type: functional
T2 sequence (P43367 whole entry): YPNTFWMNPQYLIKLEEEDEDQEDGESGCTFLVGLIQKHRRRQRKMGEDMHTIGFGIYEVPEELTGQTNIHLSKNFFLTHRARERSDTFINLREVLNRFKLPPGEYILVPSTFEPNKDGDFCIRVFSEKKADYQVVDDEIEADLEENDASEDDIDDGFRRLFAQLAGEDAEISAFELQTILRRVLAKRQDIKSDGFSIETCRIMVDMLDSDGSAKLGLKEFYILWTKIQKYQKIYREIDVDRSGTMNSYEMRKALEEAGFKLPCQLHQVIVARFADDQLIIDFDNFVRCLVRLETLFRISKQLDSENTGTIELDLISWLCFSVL

[11] = system: Vero; assay: cells; assay type: functional; details: Chlorocebus sabaeus
[12] = luciferase reporter signal suppression in cells – H4 neuroglioma cells, luminescence, dose response (AID 1990); assay type: functional, cell-based
[13] = Luminescence Cell-Based Dose Response HTS to Identify Inhibitors of 5'UTR Stem-Loop Driven Prion Protein mRNA Translation in H4 Neuroglioblastoma Cells. [Related pubchem assays: 1827 (Project Summary), 1813 (Primary HTS)]; assay type: functional
[14] = alpha-synuclein stem-loop luciferase translation blockers – H4 neuroglioma cells, luminescence, confirmation (AID 1988); assay type: functional, cell-based
[15] = microbe, parasite or virus in culture; assay type: functional; details: Mycobacterium tuberculosis
[16] = cells; assay type: functional
[17] = target: Cytochrome P450 3A4 (Homo sapiens, UniProt P08684);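 note: CYP3A4 tested as one member of a cytochrome P450 panel screen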
Sequence of Cytochrome P450 3A4 (P08684 whole entry): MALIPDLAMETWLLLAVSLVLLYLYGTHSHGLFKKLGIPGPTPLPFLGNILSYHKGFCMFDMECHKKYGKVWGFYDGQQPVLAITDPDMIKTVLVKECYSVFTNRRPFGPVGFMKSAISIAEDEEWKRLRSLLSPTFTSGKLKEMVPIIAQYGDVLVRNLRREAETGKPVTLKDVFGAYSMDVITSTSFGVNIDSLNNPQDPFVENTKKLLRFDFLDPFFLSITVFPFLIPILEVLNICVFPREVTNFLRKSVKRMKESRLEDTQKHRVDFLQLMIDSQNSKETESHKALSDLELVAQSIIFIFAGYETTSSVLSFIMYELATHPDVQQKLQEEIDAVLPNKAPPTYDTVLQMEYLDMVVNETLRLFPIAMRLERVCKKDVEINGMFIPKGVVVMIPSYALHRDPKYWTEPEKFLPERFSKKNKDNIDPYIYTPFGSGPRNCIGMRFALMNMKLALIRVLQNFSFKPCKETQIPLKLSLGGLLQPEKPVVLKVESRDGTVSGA

[18] = target: T3, Cytochrome P450 1A2 (Homo sapiens, UniProt P05177);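 note: PubChem cytochrome P450 panel assay, CYP1A2 panel member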
T3 sequence (P05177 whole entry): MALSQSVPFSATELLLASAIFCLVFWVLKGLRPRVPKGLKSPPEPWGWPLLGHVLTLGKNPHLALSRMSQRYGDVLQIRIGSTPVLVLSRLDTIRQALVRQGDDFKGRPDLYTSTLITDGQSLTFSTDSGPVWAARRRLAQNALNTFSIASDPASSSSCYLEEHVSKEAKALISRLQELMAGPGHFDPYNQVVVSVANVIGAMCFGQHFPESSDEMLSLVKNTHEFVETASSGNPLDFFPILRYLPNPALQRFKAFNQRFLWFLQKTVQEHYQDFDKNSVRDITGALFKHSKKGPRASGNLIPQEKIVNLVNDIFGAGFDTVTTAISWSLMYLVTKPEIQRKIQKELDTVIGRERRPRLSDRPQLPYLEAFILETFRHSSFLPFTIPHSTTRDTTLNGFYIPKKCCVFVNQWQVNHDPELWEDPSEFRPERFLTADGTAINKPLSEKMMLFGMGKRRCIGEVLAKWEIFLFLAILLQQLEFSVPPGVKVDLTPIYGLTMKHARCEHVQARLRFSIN

[19] = P. falciparum Dd2 growth inhibitors, dose response, SYBR Green, cherry-picked samples (AID 1159567); assay type: functional, cell-based

O=C1c2ccccc2NC(c2ccc([N+](=O)[O-])cc2)N1O (configuration not stated)
IC50 [1]: 10.4 µM (active)

CCCc1cc(=O)oc2c(C)c(OCC(=O)Nc3ccc(CN4CCOCC4)cc3)ccc12
EC50 [2]: > 112 µM (not active) | EC50 [3]: > 112 µM (not active)

CCCC[C@@H]1CN=C(N)N1CCc1cc(C(F)(F)F)cc(C(F)(F)F)c1
IC50 [4]: > 20 µM (inactive)

COc1cc(O)ccc1C=O
EC50 [2]: > 112 µM (not active) | EC50 [3]: > 112 µM (not active)

CCOC(=O)CNC(=O)CSc1nc2cc(Br)c(C)nc2[nH]1
IC50 [1]: 24 µM (active)

COc1ccc(Oc2ncc3nc(C)c(=O)n(-c4ccccc4)c3n2)cc1
AC50 [5]: 39.8 µM (inconclusive) | AC50 [6]: 39.8 µM (inconclusive) | AC50 [7]: 10 µM (inconclusive)

COc1cccc(C2CC(C(F)(F)F)n3ncc(C(=O)O)c3N2)c1 (configuration not stated)
EC50 [2]: > 112 µM (not active) | EC50 [3]: > 112 µM (not active)

CCn1c(SCC(=O)Nc2ccccc2N2CCCCC2)nc2c1c(=O)n(C)c(=O)n2C
IC50 [1]: > 79 µM (inactive)

COc1ccc(-c2nn3c(-c4ccccc4)nnc3s2)cc1OC
IC50 [1]: > 79 µM (inactive)

CCOC(=O)c1ccc(NC(=O)CCc2ccc(C)o2)cc1
EC50 [2]: > 112 µM (not active) | EC50 [3]: > 112 µM (not active)

CCCCNc1c([N+](=O)[O-])cc(C)cc1[N+](=O)[O-]
IC50 [8]: 27.1 µM (active)

C=CCN1C(=O)/C(=C/c2cccs2)C(=O)NC1=S
IC50 [9]: 43.8 µM (active)

COc1ccc(NC(=O)C2CCCN(c3nn4c(=O)cc(C)nc4s3)C2)c(OC)c1 (configuration not stated)
EC50 [2]: > 112 µM (not active) | EC50 [3]: > 112 µM (not active)

C[C@@H]1CC[C@H]2C(=O)O[C@H](CN=[N+]=[N-])CN2[C@@H]1c1ccc(Br)cc1
AC50 [6]: 7.94 µM (inconclusive) | AC50 [7]: 3.16 µM (inconclusive)

COC(=O)C1=C(C)N(Cc2ccccc2)C(NCc2cc(OC)c(OC)c(OC)c2)=N[C@H]1CCc1ccccc1
IC50 [4]: > 20 µM (inactive)

O=C(Nc1ccc2ccccc2c1)C(=O)C1C(=O)Nc2ccccc21 (configuration not stated)
IC50 [10]: < 0.4 µM (not active)

Cc1nn2c(NCCCN(C)C)c3c(nc2c1-c1ccccc1)CCCC3
CC50 [11]: > 25 µM (active)

CN(C)c1ccc(N=Nc2ccccc2C(=O)OCC(=O)N(C)c2ccccc2)cc1
IC50 [8]: 21.2 µM (active)

CNc1nc(NN)nc(Nc2ccccc2)n1
IC50 [8]: 15 µM (active)

COc1ccc(S(=O)(=O)N2CCOCC2)cc1N=Nc1sc(N)nc1-c1ccccc1
EC50 [12]: 14.7 µM (active) | EC50 [13]: > 120 µM (not active) | IC50 [8]: > 100 µM (active) | EC50 [14]: 46.6 µM (active)

CC(=O)NC(c1cc(Cl)c2ccccc2c1O)C(C)C (configuration not stated)
IC50 [4]: > 20 µM (inactive)

c1ccc2c(C3=NN=C(NC4CCCCC4)SC3)c[nH]c2c1
CC50 [15]: > 40 µM (active) | IC50 [10]: 6.76 µM (not active)

CCCCNC(=S)NC(=O)c1ccc(Cl)cc1Cl
IC50 [10]: 4.25 µM (not active)

COc1cc2c(cc1OC)CN(CC(=O)Nc1ccccc1C#N)CC2
IC50 [1]: 34.2 µM (inactive)

Cc1c(NC(=O)CSC(=S)N2CCCC2)c(=O)n(-c2ccccc2)n1C
EC50 [2]: 25.5 µM (active) | EC50 [3]: > 112 µM (not active)

CC(=O)Nc1ccc(NC(=O)Cc2ccc(S(=O)(=O)N3CCCCC3)s2)cc1
IC50 [10]: 2.64 µM (not active)

CCOC(=O)N1CCN(C(=O)CSc2nc3ccccc3c(=O)n2-c2ccccc2)CC1
IC50 [1]: 19.5 µM (active)

O=C(OCc1ccc([N+](=O)[O-])cc1)c1ccc2ccccc2n1
IC50 [16]: 18 µM (active)

Cc1ccnc(N2C(=O)C3C4CC(C(Br)C4Br)C3C2=O)c1 (configuration not stated)
AC50 [17]: 25.1 µM (inconclusive) | AC50 [7]: 17.8 µM (inconclusive)

CN(Cc1cc(C(C)(C)C)cc(Br)c1O)Cc1cc(C(C)(C)C)cc(Br)c1O
AC50 [6]: 2.51 µM (inconclusive) | AC50 [7]: 3.98 µM (inconclusive)

CCCCOc1ccc(-c2nnn(C(C)C(=O)OCC)n2)cc1 (configuration not stated)
IC50 [16]: 2.83 µM (active)

C/C=C1\COC(C(=O)NCCN2CCCC2)(C(F)(F)F)C=C1C=C1CCCCC1 (configuration not stated)
IC50 [4]: > 20 µM (inactive)

COc1ccc(CNC(=O)N[C@@H](CC(C)C)C(=O)O)cc1OC
EC50 [2]: > 112 µM (not active) | EC50 [3]: > 112 µM (not active)

Cc1ccc(S(=O)(=O)N2CCC(C(=O)NCc3cccnc3)CC2)cc1
AC50 [5]: 17.8 µM (inconclusive) | AC50 [6]: 12.6 µM (inconclusive) | AC50 [7]: 6.31 µM (inconclusive)

COC(=O)/C=C/CSC1=N/C(=C/c2ccc(-n3cncn3)cc2)C(=O)N1
AC50 [7]: 11.2 µM (inconclusive)

C#CCOCCOCCOCCNc1nc(N2CCN(C(=O)[C@H]([C@@H](C)CC)n3cc([C@@H](N)CC(C)C)nn3)CC2)nc(N2CCN(C(=O)[C@H](Cc3ccc(O)cc3)n3cc([C@@H](N)C(C)CC)nn3)CC2)n1 (some centres not stated)
IC50 [4]: > 20 µM (inactive)

COc1[nH]nc(C(=O)Nc2cc(F)ccc2C)c1[N+](=O)[O-]
IC50 [16]: > 50 µM (active)

CCC(C(=O)OCC(=O)Nc1ccc(Cl)c(S(=O)(=O)N(C)C)c1)c1ccccc1 (configuration not stated)
IC50 [10]: 13.3 µM (not active)

C=CCn1c(S)nnc1C(C)NC(=O)c1ccccc1 (configuration not stated)
AC50 [7]: 17.8 µM (inconclusive)

O=C(CC1Oc2ccccc2NC1=O)NC1CCCC1 (configuration not stated)
EC50 [2]: > 112 µM (not active) | EC50 [3]: > 112 µM (not active)

COc1cc(C#Cc2c(-c3cncn3C)n(C)c3ccc(Br)cc23)cc(OC)c1
IC50 [4]: > 20 µM (inactive)

CCc1ccc([C@@H]2CC=C(C(=O)O)[C@H](c3ccc(C)cc3)N2S(=O)(=O)c2ccc(C)cc2)cc1
IC50 [9]: 41.2 µM (active)

CC(=O)Nc1ccc(OCC(O)Cn2cnc3ccccc32)cc1 (configuration not stated)
AC50 [6]: 0.00562 µM (inconclusive) | AC50 [7]: 0.0631 µM (inconclusive)

CCN(CC(=O)Nc1ccc2c(c1)OCCO2)C(=O)c1cccc(S(=O)(=O)N2CCOCC2)c1
AC50 [5]: 22.4 µM (inconclusive) | AC50 [18]: 12.6 µM (inconclusive) | AC50 [7]: 11.2 µM (inconclusive)

Oc1ccc(Cl)cc1/C=N/c1ccc(Br)cc1
IC50 [1]: 22.3 µM (active)

NC(=O)c1ccccc1/N=C/c1ccccn1
IC50 [1]: 22.4 µM (active)

COc1ccc(C/N=C(\C#N)C2=C(O)c3ccccc3C2=O)cc1
IC50 [16]: 45.7 µM (active)

O=C(N/N=C/c1ccccn1)c1ccc(NC(=O)c2ccc(F)cc2)cc1
EC50 [2]: > 112 µM (not active) | EC50 [3]: > 112 µM (not active)

Cc1ccc(/C=N/NC(=O)CSc2nc3nc(C)cc(C)n3n2)cc1
AC50 [18]: 4.47 µM (inconclusive) | AC50 [7]: 22.4 µM (inconclusive)

Cc1cc(C(=O)N/N=C/c2ccc(OC(=O)c3ccccc3Br)cc2)[nH]n1
IC50 [16]: 41.6 µM (active)

CC(=O)Nc1nc(CCl)cs1
IC50 [10]: > 50 µM (not active)

COc1ccc(-c2ccc3c(c2)[C@H]2[C@H](CCN2C(=O)NC2CCCC2)[C@H](CO)N3C)cc1
AC50 [19]: 5.37 µM (active)

O=C(Nc1ccccc1F)N1CC(=O)N2[C@H](CO)[C@@H](c3ccc(-c4ccccc4)cc3)[C@H]2C1
AC50 [19]: 14.5 µM (active)
